Measured values published in PubChem BioAssay AID1949 (Southern Research Institute, 2009).
Values after ≈ are worked out from the molar mass of the structure shown. Records with an inconclusive call do not appear. Active and inactive are the calls of the source. How the calls were made is not given here.

What follows are compounds tested on M. tuberculosis H37Rv growth inhibition (assay: Mycobacterium tuberculosis H37Rv growth inhibition, cell based, confirmatory dose response (AID 1949);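 further: bacteria grown 7 days with compound before Alamar blue readout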).

Row | Compound | IC50
1 | CCCCOc1ccc(S(=O)(=O)Nc2ccc(Cl)cc2)cc1 | 4.09 mg/L (≈ 12 µM)
2 | O=C(Cc1ccc(F)cc1)Nc1ccc(Cl)c(C(F)(F)F)c1 | 1.2 mg/L (≈ 3.62 µM)
3 | CC1CCN(c2nc(-c3cccnc3)nc3ccccc23)CC1 | > 50 mg/L (inactive)
4 | Cc1ccc(C(=O)Nc2nc(C(C)(C)C)cs2)cc1[N+](=O)[O-] | 27.2 mg/L (≈ 85.3 µM)
5 | Cc1cccc(Nc2nc(NCc3ccco3)c3ccccc3n2)c1 | 1.86 mg/L (≈ 5.63 µM)
6 | CCOC(=O)COc1ccc2c3c(c(=O)oc2c1C)CCC3 | > 50 mg/L (inactive)
7 | CC(C)COc1ccc(CNC(=S)NCc2ccccc2)cc1 | 4.39 mg/L (≈ 13.4 µM)
8 | C/C(=N/N=C1\NC(=O)C(Cc2ccc(F)cc2)S1)c1ccc(C)cc1 (stereo unspecified) | > 50 mg/L (inactive)
9 | c1ccc(Nc2nc(Nc3ccccc3)nc(N3CCNCC3)n2)cc1 | 3.99 mg/L (≈ 11.5 µM)
10 | O=c1c2cc(I)ccc2nc(/C=C/c2cccnc2)n1CCc1ccccc1 | 31.4 mg/L (≈ 65.4 µM)
11 | CCCCNCCOc1ccc(Cl)cc1C(C)(C)C | 12.8 mg/L (≈ 45 µM)
12 | O=C(Oc1ccccc1)c1ccc(COC(=O)c2ccco2)cc1 | 2.69 mg/L (≈ 8.35 µM)
13 | COc1ccc(CCCC(=O)Nc2ccc(Cl)c(Cl)c2)c(C)c1 | 8.81 mg/L (≈ 25 µM)
14 | Oc1ccccc1-c1n[nH]c(/C=C/c2ccc(Cl)cc2)n1 | 2.73 mg/L (≈ 9.17 µM)
15 | COc1ccccc1-c1c(C)oc2cc(OCc3ccccc3)ccc2c1=O | 9.15 mg/L (≈ 24.6 µM)
16 | O=C1C(=O)N(Cc2cccc3ccccc23)c2ccc(Cl)cc21 | 21.4 mg/L (≈ 66.6 µM)
17 | CCOC(=O)CSc1nc(C#N)c(SCC(=O)OCC)s1 | 2.29 mg/L (≈ 6.61 µM)
18 | O=C(NC12CC3CC(CC(C3)C1)C2)N1CCN(c2cccc(C(F)(F)F)c2)CC1 | 0.96 mg/L (≈ 2.36 µM)
19 | CCC(C)Oc1ccc(C(=O)NC(=S)Nc2ccc(N3CCOCC3)cc2)cc1 (stereo unspecified) | 1.22 mg/L (≈ 2.95 µM)
20 | COc1ccc(CCn2cnc3oc(-c4ccccc4)c(-c4ccccc4)c3c2=N)cc1OC | > 50 mg/L (inactive)
21 | CCOC(=O)c1c(-c2ccc(C)o2)csc1NC(=S)NC(=O)N(C)C | 1.85 mg/L (≈ 4.85 µM)

Row | Compound | IC50
22 | O=[N+]([O-])c1ccc(NCCNc2nc(N3CCCC3)nc3ccccc23)cc1 | 1.06 mg/L (≈ 2.8 µM)
23 | Cc1cccc(NC(=O)c2cc(-c3cccs3)nc3ccccc23)n1 | 1.82 mg/L (≈ 5.27 µM)
24 | CCc1ccc(O)c(NC(=S)NC(=O)c2cccc3ccccc23)c1 | 0.16 mg/L (≈ 0.457 µM)
25 | CC(C)(C)c1cnc(NC(=O)c2ccccc2O)s1 | 1.06 mg/L (≈ 3.84 µM)
26 | O=C(Nc1ccc([N+](=O)[O-])cc1)c1cc(Br)ccc1O | 17.9 mg/L (≈ 53.2 µM)
27 | COc1ccccc1C(=O)NNC(=S)NC(=O)c1ccc(-c2ccccc2)cc1 | < 0.1 mg/L
28 | CSc1cccc(NC(=O)C2CCN(C(=O)c3ccc(-c4ccccc4)cc3)CC2)c1 | 5.73 mg/L (≈ 13.3 µM)
29 | COC(=O)COc1ccc(/C=C(/C#N)c2nc3ccccc3[nH]2)cc1 | 0.67 mg/L (≈ 2.01 µM)
30 | Cc1ccc(C(=O)Nc2ccc(N3CCCC3)c(Cl)c2)c(C)c1 | 6.72 mg/L (≈ 20.4 µM)
31 | N#CC1=C(SCC(=O)Nc2ccccc2C(=O)c2ccccc2)NC(=O)CC1c1ccccc1F (stereo unspecified) | 3.1 mg/L (≈ 6.38 µM)
32 | Cc1cc(OCCCN2CCCC(C)C2)cc(C(C)C)c1 (stereo unspecified) | 5.85 mg/L (≈ 20.2 µM)
33 | COc1ccc(-c2nc(NC(=O)c3ccccc3)n[nH]2)cc1OC | 1.5 mg/L (≈ 4.62 µM)
34 | Cc1c(OC(=O)c2ccccc2Cl)ccc2c1CCCC2 | 2.51 mg/L (≈ 8.34 µM)
35 | Cc1nc2ccccc2n1CCCOc1ccc(Cl)cc1 | 4.87 mg/L (≈ 16.2 µM)
36 | CC1=NN(c2nc(-c3ccc(Cl)cc3)cs2)C(=O)C1C (stereo unspecified) | 2.07 mg/L (≈ 6.77 µM)
37 | Fc1ccc(Nc2nc(-c3ccccn3)cs2)cc1 | 0.28 mg/L (≈ 1.03 µM)
38 | CSc1ncnc2c1ncn2CC(=O)Nc1ccc(C)c(C)c1 | < 0.1 mg/L
39 | O=C(CC(O)(C(F)(F)F)C(F)(F)F)Nc1ccc(Cl)c(Cl)c1 | 1.51 mg/L (≈ 4.08 µM)
40 | COc1ccccc1-c1c(C)oc2cc(OCC(=O)OCc3ccccc3)ccc2c1=O | 0.36 mg/L (≈ 0.836 µM)
41 | O=C(CCNc1ccc(Cc2ccncc2)cc1)c1ccc([N+](=O)[O-])cc1 | 4.37 mg/L (≈ 12.1 µM)
